Columns and labels:
Assay type in all cases: cell-based, human
[1] = test system: cardiac infarct organoids; assay: Contraction analysis of beating organoids (contraction amplitude, beat rate), infarct organoids
Description: For the cardiac infarction protocol, microtissues (about150 μm radius on D0) were placed in a hypoxia chamber within the incubator at about 10% O2 with 1 μM of norepinephrine (NE, A7257, Sigma) after 4 days of pre-culture. Media was changed with fresh NE every 2 days for the length of the experiment (10 days). For extended validation studies, 20 ng/ml of human recombinant transforming growth factor beta 1 (TGF-β1, ab50036, Abcam, Cambridge, UK), 10 nM of JQ1 (SML1524, Sigma), and 2 ng/ml of human recombinant vascular endothelial growth factor (VEGF, CC-4114A, Lonza) was added to the media every 2 days for infarct organoids for the length of the experiment (10 days).
(§1) Videos of spontaneously beating spheroids from each group were recorded immediately out of the incubator (to reduce temperature induced changes in beating) for each condition using a Carl Zeiss Axiovert A1 Inverted Microscope and Zen 2011 software (Zeiss, Gottingen, Germany). Threshold edge-detecting in ImageJ software (NIH—US National Institutes of Health) was used on high contrast spheroid picture series and graphed to realize beating profiles of fractional area change, from which contraction amplitude was calculated. Contraction amplitudes were calculated as the percent change in fractional area change amplitude between contraction and relaxation. Beat rate was calculated as the number of beats per second.

[2] = test system: control cardiac organoids; assay: Contraction analysis of beating organoids (contraction amplitude, beating), control organoids
From the text: Non-adhesive agarose hydrogel molds were used as microtissue fabrication molds made from commercial master micro-molds from Microtissues, Inc (Providence, R.I.). Working cell suspensions of each cell type were used at about 4.0×10^6 cells/ml to make organoid cell ratio mixtures of about 50% hiPSC-CMs and about 50% non-myocyte (4:2:1 ratio of FBs, HUVECs, hADSCs, respectively) and mixed with 1 volume media for a final concentration of about 2.0×10^6 cells/ml. hiPSC-CM only spheroids were fabricated using 100% hiPSC-CMs at a final concentration of about 2.0×10^6 cells/ml. Approximately 75 μl of the cell suspension was pipetted into each agarose mold. […]
as §1

[3] = test system: cardiac infarct organoids; assay: TUNEL apoptotic staining of organoid sections; conditions: 1 μM, 48 hours of exposure
Description: The Roche In Situ Cell Death Detection Kit (Sigma) was used to visualize apoptotic cells in frozen sections of cardiac organoids based on the Roche protocol. Briefly, cardiac organoid frozen sections were fixed with 4% paraformaldehyde in PBS for 20 min at room temperature. Following washing in PBS for 30 minutes, samples were incubated in a permeabilization solution (0.1% Triton X-100 and 0.1% sodium citrate in PBS) for 2 minutes on ice. Then 50 μl of the TUNEL reaction mixture were added to samples and incubated at 37° C. for 1 hr. After washing in PBS (2 times at 5 min), nuclei were counterstained with DAPI (Molecular Probes/Invitrogen) diluted in PBS for 15 min at ambient temperature. Following the final wash procedure (PBS, 2 times at 5 min), glass cover slips were added to the slides using Fluoro-Gel (Electron Microscopy Sciences). TCS SP5 AOBS laser scanning confocal microscope (Leica Microsystems) was used for imaging.

[4] = test system: cardiac infarct organoids; assay: Immunofluorescent staining of organoid sections (vimentin, alpha sarcomeric actinin, αSMA, collagen), infarct organoids
Description: (§2) Freshly collected organoids were flash frozen in Tissue-Tek OCT compound (Sakura, Torrance, Calif.). Embedded spheroids were cryosectioned into 7 μm thickness layers onto glass slides for immunofluorescence staining. The sections were fixed with pre-cooled acetone (−20° C.) for 10 min. After washing (2 times at 5 min) in PBS with 0.1% Triton X-100 (PBST) (Sigma), blocking buffer was made with 10% serum corresponding to host species of secondary antibody in PBST and added to sections for 1 hr at room temperature. Sections were incubated with primary antibody diluted in PBST (1:200) overnight at 4° C. or 2 hrs at room temperature: mouse anti-alpha smooth muscle actin (A5228, Sigma), mouse anti-alpha sarcomeric actinin (ab9465, Abcam), rabbit anti-collagen type I (ab34710, Abcam), rabbit anti-vimentin (ab92547, Abcam), rabbit anti-von Willebrand factor (ab6994, Abcam). After washing in PBST (2 times at 5 min), sections were incubated with complement secondary antibodies or conjugated primary antibodies diluted in PBST for 1 hr at room temperature: Alexa Fluor 488 phalloidin (A12379, Thermo), goat anti-mouse Alexa Fluor 546 (A1103, Thermo), goat anti-rabbit Alexa Fluor 647 (111-605-144, Jackson ImmunoResearch, West Grove, Pa.). After washing in PBST (2 times at 5 min), nuclei were counterstained with DAPI (Molecular Probes/Invitrogen, Eugene, Oreg.) diluted in PBST for 15 min at room temperature. Following the final wash procedure (PBST, 2 times at 5 min), glass cover slips were added using Fluoro-Gel (Electron Microscopy Sciences, Hatfield, Pa.) and stored in 4° C. until imaging. TCS SP5 AOBS laser scanning confocal microscope (Leica Microsystems, Inc., Exton, Pa.) was for imaging. Vimentin radial density was calculated using the Radial Profile ImageJ plugin and normalized to radius equal to 1. Each analysis consisted of high resolution images at 400× total magnification of cross sections of different organoids.

[5] = test system: control cardiac organoids; assay: Immunofluorescent staining of organoid sections (vimentin), control organoids; conditions: 48 hrs of exposure
Description: as §2, with “After washing in PBST (2 times at 5 min), nuclei were counterstained with DAPI (Molecular Probes/Invitrogen, Eugene, Oreg.) diluted in PBST for 15 min at room temperature. Following the final wash procedure (PBST, 2 times at 5 min), glass cover slips were added using Fluoro-Gel (Electron Microscopy Sciences, Hatfield, Pa.) and stored in 4° C. until imaging. TCS SP5 AOBS laser scanning confocal microscope (Leica Microsystems, Inc., Exton, Pa.) was for imaging.” left out, “Each analysis consisted of high resolution images at 400× total magnification of cross sections of different organoids.” left out

hiPSC-CMs = assay: 2D hiPSC-CM culture with in vitro infarction protocol and DOX; conditions: hypoxic culture (1%) with 1 μM NE 2 days prior to 2 days DOX treatment
From the text: As a control, we performed 2D studies using hiPSC-CMs with DOX to evaluate the combined effects of an in vitro infarction protocol and DOX on hiPSC-CMs. […] Nearly 100% of cells death was found for hiPSC-CMs after 4 days of the same hypoxic culture using hiPSC-CM media with galactose but no glucose, which has been attributed to the lack of glucose in the hiPSC-CM media. In addition, extended culture of 2D hiPSC-CMs in organoid media to mimic prolonged organoid infarction protocol led to minimal and irregular hiPSC-CM contractile behavior accompanied with the reduction of αSA+ cells. In contrast to the inherent difficulties of using 2D hiPSC-CM culture systems to model post-MI responses, human infarct organoids provide a robust, biomimetic […] tissue-level context to evaluate the effects of DOX on the post-MI cardiac tissues.

[6] = test system: cardiac infarct organoids; assay: Mechanical testing using micropipette aspiration (elastic modulus)
Description: A micropipette aspiration was performed in media similarly to previous studies using a custom-built fluid reservoir to generate a fixed pressure of 40 cm H2O (about 3.9 kPa) in pulled micropipette to apply the suction force on test organoids.^23,24 Validation and stability of pressure changes were confirmed using an in-line 5 kPa 2-port pressure transducer with about 1 Pa sensitivity (Honeywell, Morristown, N.J.). Micropipettes were pulled to a final inner diameter of approximately 40-60 μm. Prior to and during testing, organoids were soaked in a 30 mM solution of 2,3-butanedione monoxime (BDM) (Sigma) in media for 5-10 min to eliminate contractions to reduce the effect of contractile status on tissue stiffness. Pressure was applied to the organoid surface and pictures were recorded until reaching equilibrium deformation (about 5 min) (FIG. 2F). Under the homogeneous half-space model assumptions^23, the change in length (L) from pre-deformation to equilibrium deformation was used to calculate the elastic modulus according the previously established relationship: E=3aΔp/2πL Φ(η), where E is elastic modulus, a is the inner micropipette radius, Δp is the applied pressure, Φ( ) is the wall function (under punch model assumptions), and η is the wall parameter.^24,25

[7] = test system: cardiac infarct organoids; assay: Calcium transient imaging with two-photon light sheet microscope (beating synchronization)
From the text: To functionally interpret the transcriptomic shifts in cardiomyocyte calcium handling and arrhythmogenesis, a two-photon, laser-scanning, light sheet (2PLS) microscope was used that allowed for deeper tissue penetration with high-speed imaging (50 frames/sec) and orthogonal selected plane (about 4 μm thickness) illumination.^27 Given its strength for in situ imaging, the 2PLS microscope allowed for the visualization of calcium handling in the interior regions of 3D cardiac microtissues to study calcium handling and arrhythmogenicity across the organoids. Organoids were fabricated with GCaMP6-labeled hiPSC-CMs and calcium transient amplitudes (ΔF/F0) were measured from “cell-sized” regions of interest (ROIs) (representing individual cardiomyocytes) inside organoids. […] In particular, imaging and calcium transient profiles of synchronized edge and interior cardiomyocyte ROIs from human induced pluripotent stem cell-derived-cardiomyocyte (hiPSC-CM) spheroids were cultured in the cardiac organoid infarction protocol.

[8] = 10 nM added to infarct organoid culture
[9] = 20 ng/ml added during infarction protocol

COc1cccc2c1C(=O)c1c(O)c3c(c(O)c1C2=O)C[C@@](O)(C(=O)CO)C[C@@H]3O[C@H]1C[C@H](N)[C@H](O)[C@H](C)O1 [DOX, doxorubicin]
IC50 ([1]; Homo sapiens, infarct organoids, 48 hrs of exposure starting on D10): ~150 nM
concentration at cessation of beating ([1]; infarct organoids): 1 µM
concentration at cessation of beating [2]: 10 µM
IC50 ([2]; Homo sapiens, 48 hrs of exposure starting on D10): ~370 nM
apoptosis (TUNEL analysis) [3]: significantly increased apoptosis
dose inducing an increase in vimentin+ density ([4]; infarct organoids, 48 hrs of exposure): 0.1 µM
αSA staining relative to vehicle control (sarcomeric organization) ([4]; interior of infarct organoids, 0.1 μM): significantly decreases
dose inducing an increase in vimentin+ density [5]: 1.0 µM
viability and contractile structures/organization of 2D hiPSC-CMs (hiPSC-CMs): exacerbation of DOX-induced reduction in viability and reduction in contractile structures/organization

Cc1sc2c(c1C)C(c1ccc(Cl)cc1)=N[C@@H](CC(=O)OC(C)(C)C)c1nnc(C)n1-2 [JQ1]
vimentin+ density at the infarct organoid edge [4, 8]: significantly reduced
organoid stiffness (elastic modulus) [6, 8]: significant decrease in stiffness
unsynchronized beating of infarct organoids ([7]; 10 nM): reduction of unsynchronization

NC[C@H](O)c1ccc(O)c(O)c1 [NE, norepinephrine]
beat rate ([1]; 10% O2 with 1 μM for 10 days, versus control organoids): increase in beat rate

COCCc1ccc(OCC(O)CNC(C)C)cc1 (centres unmarked) [metoprolol]
NE-induced increase in beat rate ([1]; infarct organoids cultured with 10 μM, D10): reversed

TGF-β1: human recombinant transforming growth factor beta 1, pro-fibrotic stimulus
collagen organization and presence of αSMA+ myofibroblast-like cells [4, 9]: further increased
organoid stiffness (elastic modulus) [6, 9]: significant increase in organoid stiffness

VEGF
unsynchronized beating of infarct organoids ([7]; 2 ng/ml): reduction of unsynchronization

Source: patent publication US20220162559A1, “MYOCARDIAL ORGANOIDS AND METHODS OF MAKING AND USES THEREOF” (CLEMSON UNIVERSITY RESEARCH FOUNDATION, priority 2018, published 2022)
